Drawing on US11667652B2, “MCL1 inhibitors” (Gilead Sciences, Inc., priority 2019, dated 2023), this text covers EC50 and IC50 for 27 compounds.

Read-outs that look alike come from different tables or passages of the source.

Assay [1] has as its system SKBR3 cells. Put plainly: SKBR3 Cell Viability Assay. Type of assay: cell-based. Particulars: CellTiter Glo, read-out: MCL1 CV SKBR3 EC50. Here is the method: SKBR3 Cell Viability Assay Materials
SKBR3 Cells (ATCC HTB-30) were obtained from ATCC (Manassas, Va.) and cultured in McCoy 5A's medium (ATCC 30-2007)+10% fetal bovine serum (SH30071.03, HyClone, Pittsburgh, Pa.) plus 1× Penicillin-Streptomycin L-glutamine (Corning 30-009-CI, Corning, N.Y.).
The cell viability assay was conducted in a 384-well tissue culture plate (Grenier 781086, Monroe, N.C.) in a total volume of 70 μL. Test compounds were prepared in 1,000×, serially diluted, and pre-spotted into 384-well tissue culture plate by Echo 555 Liquid Handler (Labcyte Inc., San Jose, Calif.). Seventy μL of 6,000 SKBR3 cells were dispensed into each well of the plate and incubated at 37° C. with 5% CO2 for 72 hours. At the end of incubation, 2× CellTiter Glo (CTG) reagents (1 part buffer with 2 parts substrate) (Promega, Madison, Wis.) were prepared, and the plate and the reagent were equilibrated to room temperature for 30 minutes. CTG reagent was added to each plate by Biomek FX at 20 μL/well with 5 times pipetting and mixing to induce cell lysis. Luminescence was read by Envision multimode reader (PerkinElmer). Percent inhibition was calculated as followed: % Inhibition=100%*(Well−Neg)/(Pos−Neg) Neg, negative control, DMSO Pos, positive control, 10 μM Puromycin
(ATP-based viability assays read luminescence as a measure of living cells.)

The target of assay [2] is MCL1/Bim (Homo sapiens (Human), UniProt Q07820). Put plainly: MCL1/Bim Binding AlphaLISA Assay. The settings on record: recombinant human 6xHis-MCL1 (171-327), biotinylated Bim peptide (51-76). The method, then: MCL1/Bim Binding AlphaLISA Assay.
Inhibition of the MCL1 and Bim interaction was measured in the following AlphaLISA assay.
Recombinant human MCL1 protein (C-terminal 6×His Tagged MCL1 containing residues 171-327) was generated at Gilead Sciences, Inc. (Foster City, Calif.). A biotinylated peptide derived from human Bim (residues 51-76) was purchased from CPC Scientific (Sunnyvale, Calif.). (CPC 834113). AlphaLISA anti-6His- acceptor beads (AL128R), AlphaScreen Streptavidin donor beads (6760002B), and Proxiplate-384 Plus (6008289) were purchased from PerkinElmer.
The AlphaLISA assay was performed in a 384-well Proxiplate in a total volume of […]. The reaction mixture contained 0.0625 nM 6×His-MCL1 (171-327), 0.0625 nM biotinylated-Bim peptide, 10 μg/mL AlphaLISA anti-6×His-AlphaLISA acceptor beads, 40 μg/mL AlphaScreen streptavidin donor beads, and serially diluted test compounds in the binding buffer (20 mM Hepes, pH 7.5 (Teknova H1035); 150 mM NaCl (Promega V4221); 0.002% Brij 35 (Thermo Scientific 20150); 1 mM Dithiothreitol (DTT) Solution (Affymetrix 70726); 0.01% BSA (BioLabs B9000S)). 1,000× test compounds were pre-spotted onto 384-well Proxiplate (Labcyte Echo) by Echo 555 Liquid Handler (Labcyte Inc., San Jose, Calif.) followed by incubation of 5 μL MCL1(171-327) for 1 hour. Then 5 μL Bim (51-76) was added and incubated for 2 hours. Five μL AlphaLISA anti-6His-AlphaLISA acceptor beads were then added for 1 hour followed by addition of 5 μL AlphaScreen streptavidin donor beads for 1 hour. The reaction plates were then read on an Envision multimode reader (PerkinElmer) using AlphaScreen settings. Percent inhibition was calculated as shown below: % Inhibition=100%*(Well−Neg)/(Pos−Neg) Neg: negative control, DMSO Pos: positive control, no MCL1 protein, no biotinylated-Bim peptide
In general terms: Alpha assays give light when donor and acceptor beads are brought close together.

Where [3] appears, read: Homo sapiens, SK-BR-3, 72 hours.

Chain of MCL1/Bim (Q07820 171-327): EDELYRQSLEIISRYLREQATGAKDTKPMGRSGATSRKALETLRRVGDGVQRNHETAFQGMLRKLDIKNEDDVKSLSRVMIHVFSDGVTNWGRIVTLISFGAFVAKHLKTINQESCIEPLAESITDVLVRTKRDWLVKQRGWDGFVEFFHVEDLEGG

Take `CO[C@@H]1/C=C\C[C@H](C)C[S@@](=O)(Nc2ncnc3nn(C)cc23)=NC(=O)c2ccc3c(c2)N(C[C@@H]2CC[C@H]21)C[C@@]1(CCCc2cc(Cl)ccc21)CO3` [Example 27]: the 50% effective concentration (EC50) (as a rule, the midpoint of the concentration-response curve) in assay [1] (setting [3]) amounted to 40 nM. Moreover, the IC50 (usually the midpoint of a concentration-inhibition curve) in assay [2] stood at 0.103 nM.
For the compound `C[C@H]1C/C=C/[C@H](O)[C@@H]2CC[C@H]2CN2C[C@@]3(CCCc4cc(Cl)ccc43)COc3ccc(cc32)C(=O)N=[S@](=O)(Nc2ncnc3nn(C)cc23)C1` [Example 29], the concentration giving a half-maximal response (EC50) in assay [1] (setting [3]) is 15.3 nM. The IC50 in assay [2] was determined as 0.038 nM.
For `C[C@H]1C/C=C/[C@H](O)[C@@H]2CC[C@H]2CN2C[C@@]3(CCCc4cc(Cl)ccc43)COc3ccc(cc32)C(=O)N=[S@](=O)(Nc2nc(Cl)nc3nn(C)cc23)C1` [Example 30], the EC50 in assay [1] (setting [3]) was found to be 930 nM. Besides, the IC50 in assay [2] turned out to be 0.03 nM.
For the compound `C[C@H]1C/C=C/[C@H](O)[C@@H]2CC[C@H]2CN2C[C@@]3(CCCc4cc(Cl)ccc43)COc3ccc(cc32)C(=O)N=[S@](=O)(Nc2nc(N)nc3nn(C)cc23)C1` [Example 32], in assay [1] (setting [3]), the EC50 was 18.5 nM. The concentration for half-maximal inhibition (IC50) in assay [2] was determined as 0.057 nM.
On to `C[C@H]1C/C=C/[C@H](O)[C@@H]2CC[C@H]2CN2C[C@@]3(CCCc4cc(Cl)ccc43)COc3ccc(cc32)C(=O)N=[S@](=O)(Nc2nc(N3CCOCC3)nc3nn(C)cc23)C1` [Example 33], for which, in assay [1] (setting [3]), the EC50 was 30.1 nM. In addition, in assay [2], the half-maximal inhibitory concentration (IC50) is 0.019 nM.
In the same order, the values of `C[C@@H]1[C@@H](C)C/C=C/[C@H](O)[C@@H]2CC[C@H]2CN2C[C@@]3(CCCc4cc(Cl)ccc43)COc3ccc(cc32)C(=O)N=[S@]1(=O)Nc1ncnc2nn(C)cc12` [Example 34] are 25.4 nM and 0.088 nM.
With `COc1nn(C)cc1C(=O)N[S@@]1(=O)=NC(=O)c2ccc3c(c2)N(C[C@@H]2CC[C@H]2[C@@H](O)C#CC[C@H](C)C1)C[C@@]1(CCCc2cc(Cl)ccc21)CO3` [Example 36], the EC50 in assay [1] (72 hours) amounted to 1070 nM. For the same compound, the IC50 in assay [2] amounted to 0.267 nM.
Take `COc1nn(C)cc1C(=O)N[S@@]1(=O)=NC(=O)c2ccc3c(c2)N(C[C@@H]2CC[C@H]2[C@@H](OC)C#CC[C@H](C)C1)C[C@@]1(CCCc2cc(Cl)ccc21)CO3` [Example 37]: the EC50 in assay [1] (setting [3]) was found to be 57.7 nM. In assay [2], the concentration for half-maximal inhibition (IC50) stood at 0.04 nM.
In the case of `COc1nn(C)cc1C(=O)N[S@@]1(=O)=NC(=O)c2ccc3c(c2)N(C[C@@H]2CC[C@H]2[C@H](O)/C=C/C[C@H](C)C1)C[C@@]1(CCCc2cc(Cl)ccc21)CO3` [Example 39], in assay [1] (setting [3]), the concentration giving a half-maximal response (EC50) turned out to be 146 nM. The IC50 in assay [2] is 0.201 nM.
`CC[C@@H]1CC/C=C/[C@H](OC)[C@@H]2CC[C@H]2CN2C[C@@]3(CCCc4cc(Cl)ccc43)COc3ccc(cc32)C(=O)N=S1(=O)NC(=O)COC1CCOCC1` (stereo partly drawn) [Example 40]: the EC50 in assay [1] (72 hours) stood at 326 nM. Besides, the IC50 in assay [2] was 0.101 nM.
`CC[C@@H]1CC/C=C/[C@H](OC)[C@@H]2CC[C@H]2CN2C[C@@]3(CCCc4cc(Cl)ccc43)COc3ccc(cc32)C(=O)/[N+]([O-])=[S@]\1NC(=O)c1cn(C)nc1OC` [Example 41]: in assay [1] (72 hours), the 50% effective concentration (EC50) came to 126 nM. For the same compound, the half-inhibitory concentration (IC50) in assay [2] turned out to be 0.146 nM.
Taken in the same sequence, the figures for `CC[C@H]1C/C=C/[C@H](OC)[C@@H]2CC[C@H]2CN2C[C@@]3(CCCc4cc(Cl)ccc43)COc3ccc(cc32)C(=O)N=[S@](=O)(NC(=O)NC2CC2)C1` [Example 42] were 233 nM and 0.253 nM.
For the compound `CC[C@H]1C/C=C/[C@H](OC)[C@@H]2CC[C@H]2CN2C[C@@]3(CCCc4cc(Cl)ccc43)COc3ccc(cc32)C(=O)N=[S@@](=O)(NC(=O)c2cnn(C)c2)C1` [Example 43], the EC50 in assay [1] (72 hours) was 3570 nM. Further, the IC50 in assay [2] stood at 1.67 nM.
Taken in the same sequence, the figures for `CCn1ccc(OC[C@H]2C/C=C/[C@H](OC)[C@@H]3CC[C@H]3CN3C[C@@]4(CCCc5cc(Cl)ccc54)COc4ccc(cc43)C(=O)N=[S@@](=O)(NC(=O)COC3CCOCC3)C2)n1` [Example 46] were 1600 nM and 0.521 nM.
As for `COc1nn(C)cc1C(=O)N[S@]1(=O)=NC(=O)c2ccc3c(c2)N(C[C@@H]2CC[C@H]2C(=O)/C=C/C[C@H](C)C1)C[C@@]1(CCCc2cc(Cl)ccc21)CO3` [Example 47], the EC50 in assay [1] (72 hours) turned out to be 81.9 nM. Moreover, the half-maximal inhibitory concentration (IC50) in assay [2] was 0.167 nM.
Taken in the same sequence, the figures for `COc1nn(C)cc1C(=O)N[S@@]1(=O)=NC(=O)c2ccc3c(c2)N(C[C@@H]2CC[C@H]2C(=O)/C=C/C[C@H](C)[C@H]1C)C[C@@]1(CCCc2cc(Cl)ccc21)CO3` [Example 48] were 173 nM and 0.693 nM.
With `Cn1nccc1CCC(=O)NS1(=O)=NC(=O)c2ccc3c(c2)N(C[C@@H]2CC[C@H]2[C@@H](OCCN2CCOCC2)/C=C/CCC1)C[C@@]1(CCCc2cc(Cl)ccc21)CO3` (stereo partly drawn) [Example 49], the concentration giving a half-maximal response (EC50) in assay [1] (72 hours) is 525 nM. Also, the IC50 in assay [2] is 0.194 nM.
Take `C[C@H]1C/C=C/[C@H](OC(=O)c2cnn(C)c2)[C@@H]2CC[C@H]2CN2C[C@@]3(CCCc4cc(Cl)ccc43)COc3ccc(cc32)C(=O)N=[S@](=O)(NC(=O)c2cnn(C)c2)C1` [Example 51]: the concentration giving a half-maximal response (EC50) in assay [1] (setting [3]) was found to be 433 nM. Further, in assay [2], the half-inhibitory concentration (IC50) came out at 0.222 nM.
In the same order, the values of `C[C@H]1C/C=C/[C@H](OCCN2CCOCC2)[C@@H]2CC[C@H]2CN2C[C@@]3(CCCc4cc(Cl)ccc43)COc3ccc(cc32)C(=O)N=[S@](=O)(Nc2ncnc3nn(C)cc23)C1` [Example 52] are 9.5 nM and 0.081 nM.
Turning to `COc1nn(C)cc1C(=O)N[S@@]1(=O)=NC(=O)c2ccc3c(c2)N(C[C@@H]2CC[C@H]2[C@@H](OCCCN2CCOCC2)/C=C/C[C@H](C)C1)C[C@@]1(CCCc2cc(Cl)ccc21)CO3` [Example 53], the EC50 in assay [1] (72 hours) amounted to 21.7 nM. The IC50 in assay [2] came out at 0.105 nM.
Turning to `C=CCO[C@H]1/C=C/C[C@H](C)C[S@@](=O)(NC(=O)c2cn(C)nc2OC)=NC(=O)c2ccc3c(c2)N(C[C@@H]2CC[C@H]21)C[C@@]1(CCCc2cc(Cl)ccc21)CO3` [Example 54], the EC50 in assay [1] (72 hours) stood at 103 nM. Moreover, in assay [2], the IC50 worked out at 0.092 nM.
In the case of `C=CCO[C@@H]1/C=C/C[C@H](C)C[S@@](=O)(NC(=O)c2cn(C)nc2OC)=NC(=O)c2ccc3c(c2)N(C[C@@H]2CC[C@H]21)C[C@@]1(CCCc2cc(Cl)ccc21)CO3` [Example 55], the 50% effective concentration (EC50) in assay [1] (72 hours) came to 426 nM. Also, the IC50 in assay [2] came to 0.332 nM.
As for `COc1nn(C)cc1C(=O)N[S@@]1(=O)=NC(=O)c2ccc3c(c2)N(C[C@@H]2CC[C@H]2[C@@H](OC(=O)CCC2CCOCC2)/C=C/C[C@H](C)C1)C[C@@]1(CCCc2cc(Cl)ccc21)CO3` [Example 56], the concentration for a half-maximal effect (EC50) in assay [1] (setting [3]) is 93.6 nM. In assay [2], the concentration for half-maximal inhibition (IC50) is 0.16 nM.
Turning to `COc1nn(C)cc1C(=O)N[S@@]1(=O)=NC(=O)c2ccc3c(c2)N(C[C@@H]2CC[C@H]2[C@@H](OCCN2CC(N(C)C)C2)/C=C/C[C@H](C)C1)C[C@@]1(CCCc2cc(Cl)ccc21)CO3` [Example 58], the EC50 in assay [1] (72 hours) amounted to 38.3 nM. The concentration for half-maximal inhibition (IC50) in assay [2] is 0.098 nM.
Take `COc1nn(C)cc1C(=O)N[S@@]1(=O)=NC(=O)c2ccc3c(c2)N(C[C@@H]2CC[C@H]2[C@@H](OCCN2CCN(C4COC4)CC2)/C=C/C[C@H](C)C1)C[C@@]1(CCCc2cc(Cl)ccc21)CO3` [Example 60]: the 50% effective concentration (EC50) in assay [1] (setting [3]) turned out to be 19.2 nM. Further, in assay [2], the 50% inhibitory concentration (IC50) was 0.07 nM.
Taken in the same sequence, the figures for `COc1nn(C)cc1C(=O)N[S@@]1(=O)=NC(=O)c2ccc3c(c2)N(C[C@@H]2CC[C@H]2[C@@H](OCCN2CC(OC)C2)/C=C/C[C@H](C)C1)C[C@@]1(CCCc2cc(Cl)ccc21)CO3` [Example 61] were 19.6 nM and 0.136 nM.
For the compound `COc1nn(C)cc1C(=O)N[S@@]1(=O)=NC(=O)c2ccc3c(c2)N(C[C@@H]2CC[C@H]2[C@@H](OCCN2CC(C(F)F)C2)/C=C/C[C@H](C)C1)C[C@@]1(CCCc2cc(Cl)ccc21)CO3` [Example 62], the concentration for a half-maximal effect (EC50) in assay [1] (setting [3]) worked out at 17.5 nM. Further, in assay [2], the IC50 came to 0.069 nM.
